Laboratory results: the supplement of paper PMC10331698
± gives the standard deviation of the averaged measurements.

Assays:
Assay in all cases: level (log10 ratio to DMSO vehicle control); higher = higher biomarker level / cell amount than vehicle control
Conditions in all cases: in DMSO
[1] = compound: O=C(O)C(F)(F)C(F)(F)C(F)(F)C(=O)O [Hexafluoroglutaric acid]
Protocol: (§1)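 BioMAP Diversity Plus panel of 12 human primary cell co-culture systems (3C, 4H, LPS, SAg, BT, BF4T, BE3C, CASM3C, HDF3CGF, KF3CT, MyoF, Mphg). Compounds were added 1 h before stimulation and left for 24 h (MyoF 48 h; BT 72 h for soluble read-outs or 6 d for IgG). Biomarkers were read by ELISA, cytotoxicity by SRB, PBMC viability and proliferation by Alamar Blue. Each well value was divided by the mean of 8 DMSO control wells on the same plate and log10 transformed; duplicate blinded samples were tested at 4 concentrations.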

[2] = compound: O=C(O)CCC(F)(F)C(F)(F)C(F)(F)F [3:3 Fluorotelomer carboxylic acid]
Protocol: as §1

[3] = compound: Cn1cnc([N+](=O)[O-])c1Sc1ncnc2[nH]cnc12 [Azathioprine]
Protocol: as §1

[4] = compound: CNS(=O)(=O)C(F)(F)C(F)(F)C(F)(F)C(F)(F)C(F)(F)C(F)(F)C(F)(F)C(F)(F)F [N-Methylperfluorooctanesulfonamide]
Protocol: as §1

[5] = compound: C=C(C)C(=O)OCC(F)(F)C(F)(F)C(F)(F)C(F)(F)C(F)(F)C(F)(F)C(F)(F)F
Protocol: as §1

[6] = compound: O=C(O)C(F)(F)OC(F)(F)C(F)(F)OC(F)(F)C(F)(F)C(F)(F)C(F)(F)F [Perfluoro-3,6-dioxadecanoic acid]
Protocol: as §1

Test System | level (log10) ([1]; 6700 nM) | level (log10) ([1]; 20000 nM) | level (log10) ([1]; 60000 nM) | level (log10) ([2]; 6700 nM) | level (log10) ([2]; 20000 nM) | level (log10) ([2]; 60000 nM) | level (log10) ([3]; 1400 nM) | level (log10) ([3]; 4200 nM) | level (log10) ([3]; 13000 nM) | level (log10) ([3]; 38000 nM) | level (log10) ([4]; 6700 nM) | level (log10) ([4]; 20000 nM) | level (log10) ([4]; 60000 nM) | level (log10) ([5]; 6700 nM) | level (log10) ([5]; 20000 nM) | level (log10) ([6]; 6700 nM) | level (log10) ([6]; 20000 nM) | level (log10) ([6]; 60000 nM)
MyoF:Collagen IV | -0.004 ± 0.013 | 0.002 ± 0.021 | -0.0055 ± 0.0064 | -0.0275 ± 0.042 | -0.029 ± 0.031 | -0.004 ± 0.035 | 0.008 ± 0.0042 | 0.0065 ± 0.0092 | -0.013 ± 0.013 | 0.02 ± 0.016 | 0.228 ± 0.022 | 0.247 ± 0.024 | 0.273 ± 0.028 | -0.0155 ± 0.0064 | 0.0195 ± 0.016 | 0.0055 ± 0.013 | 0.0345 ± 0.019 | 0.235 ± 0.011
MyoF:Decorin | -0.0145 ± 0.0078 | -0.0225 ± 0.0064 | -0.031 ± 0.0099 | -0.024 ± 0.0028 | -0.0115 ± 0.015 | -0.004 ± 0.024 | -0.007 ± 0.024 | -0.009 ± 0.023 | -0.0165 ± 0.015 | -0.013 ± 0.018 | 0.0105 ± 0.012 | 0.005 ± 0.0085 | -0.016 ± 0.0085 | -0.011 ± 0.04 | 0.0175 ± 0.081 | 0.0005 ± 0.0021 | 0.023 ± 0.014 | -0.021 ± 0.027
MyoF:MMP-1 | 0 ± 0.0085 | -0.0115 ± 0.012 | -0.008 ± 0.014 | -0.0385 ± 0.052 | -0.0305 ± 0.013 | 0.01 ± 0.028 | 0.0065 ± 0.047 | 0.0165 ± 0.019 | -0.0215 ± 0.021 | 0.0315 ± 0.0021 | -0.036 ± 0.013 | -0.0325 ± 0.018 | 0.008 ± 0.02 | -0.0245 ± 0.0092 | 0.0025 ± 0.086 | -0.003 ± 0.0085 | -0.03 ± 0.024 | 0.0505 ± 0.0064
MyoF:PAI-I | -0.0025 ± 0.021 | -0.0035 ± 0.015 | 0.003 | -0.0055 ± 0.005 | -0.003 | 0.003 ± 0.0042 | -0.004 ± 0.0085 | -0.0025 ± 0.0064 | -0.0015 ± 0.005 | 0 ± 0.0085 | 0.0005 ± 0.022 | -0.0145 ± 0.012 | 0.0255 ± 0.0092 | 0.0005 ± 0.011 | 0.005 ± 0.0042 | 0.001 ± 0.0014 | -0.0005 ± 0.0092 | -0.015 ± 0.0057
MyoF:SRB | 0.0015 ± 0.00071 | -0.002 ± 0.0085 | -0.0045 ± 0.0092 | 0.0005 ± 0.0021 | 0 ± 0.0028 | -0.0065 ± 0.012 | -0.0055 ± 0.0092 | 0.0015 ± 0.0021 | 0.0005 ± 0.0035 | -0.015 ± 0.0057 | -0.005 ± 0.0099 | -0.0085 ± 0.012 | -0.0065 ± 0.022 | -0.0005 ± 0.0021 | -0.0065 ± 0.0064 | 0 | -0.002 | -0.0515 ± 0.0092
MyoF:TIMP-1 | 0.001 ± 0.014 | -0.0545 ± 0.053 | -0.0205 ± 0.0035 | -0.053 ± 0.067 | -0.033 ± 0.059 | -0.0275 ± 0.074 | -0.0225 ± 0.04 | -0.056 ± 0.057 | 0.013 ± 0.068 | 0.016 ± 0.071 | -0.0435 ± 0.00071 | -0.049 ± 0.034 | -0.0415 ± 0.005 | 0.0225 ± 0.029 | 0.035 ± 0.017 | 0.044 ± 0.03 | 0.174 ± 0.031 | 0.164 ± 0.0014
MyoF:alpha-SM Actin | -0.008 ± 0.044 | -0.0065 ± 0.029 | 0.033 ± 0.017 | -0.011 ± 0.045 | 0.002 ± 0.023 | -0.0055 ± 0.013 | 0.037 ± 0.095 | 0.039 ± 0.071 | 0.002 ± 0.078 | -0.0365 ± 0.1 | -0.021 ± 0.068 | -0.008 ± 0.042 | 0.024 ± 0.059 | 0.0085 ± 0.022 | -0.0005 ± 0.0092 | -0.0155 ± 0.039 | -0.0235 ± 0.018 | -0.05 ± 0.014
MyoF:bFGF | 0.01 ± 0.014 | 0.0105 ± 0.013 | 0.017 ± 0.0014 | 0.0025 ± 0.0021 | 0.0025 ± 0.0092 | 0.0085 ± 0.0092 | 0.001 ± 0.016 | 0.003 ± 0.0071 | -0.015 ± 0.016 | 0.01 ± 0.0071 | 0 ± 0.014 | -0.0085 ± 0.033 | 0.005 ± 0.033 | 0.005 ± 0.016 | 0.015 ± 0.025 | 0.013 ± 0.02 | 0.003 ± 0.0057 | 0.02 ± 0.011
lMphg:CCL2/MCP-1 | -0.046 ± 0.052 | -0.0305 ± 0.037 | -0.0235 ± 0.011 | -0.012 ± 0.02 | -0.01 ± 0.018 | 0.017 ± 0.02 | 0.0055 ± 0.025 | -0.0005 ± 0.0092 | -0.0315 ± 0.0078 | -0.0755 ± 0.011 | -0.034 ± 0.0099 | -0.061 ± 0.033 | -0.0465 ± 0.04 | -0.009 ± 0.021 | 0.008 ± 0.02 | -0.024 ± 0.037 | -0.0225 ± 0.023 | -0.0435 ± 0.0092
lMphg:CCL3/MIP-1alpha | -0.0025 ± 0.0078 | 0.0125 ± 0.015 | -0.024 ± 0.052 | -0.0105 ± 0.047 | -0.027 ± 0.047 | 0.002 ± 0.02 | -0.0005 ± 0.00071 | -0.0235 ± 0.021 | -0.0225 ± 0.03 | -0.0975 ± 0.029 | -0.023 ± 0.0014 | 0.0105 ± 0.029 | 0.034 ± 0.033 | -0.032 ± 0.0028 | 0.007 ± 0.045 | -0.022 ± 0.064 | -0.0215 ± 0.049 | -0.0545 ± 0.054
